Results reported in article PMC6804253, “Predicting and Experimentally Validating Hot-Spot Residues at Protein–Protein Interfaces” (ACS Chemical Biology, 2019).
Substitutions are numbered along the chain they refer to. Like-named read-outs stand apart in the source and are kept apart here. Where a SMILES comes first, the peptide text is derived from it. Where no end group is shown, it is not given here. The star is where a group is joined. 5FAM = O=C1OC2(c3ccc(O)cc3Oc3cc(O)ccc32)c2ccc(C(=O)*)cc21; AEEA = NCCOCCOCC(=O)O

Tests used:
[1] = tested on: PPIs of the SKEMPI data set (by PDBID); experiment: SKEMPI experimental ΔΔG, single mutations to alanine; type: binding; settings: for sk_class (class of the SKEMPI experimental ΔΔG): Positive / Neutral / Negative by ΔΔG threshold 4.184 kJ/mol
[2] = tested on: PPIs of the SKEMPI data set (by PDBID); settings: cited from earlier work; for sk_ddG_kJ (SKEMPI experimental ΔΔG of binding, mutation to alanine): single mutation to alanine in the complex of the given PDBID
[3] = tested on: PPIs of the SKEMPI data set (by PDBID); settings: Flex_ddG Talaris2014, 1 REU = 1 kcal/mol assumed; cited from earlier work
[4] = tested on: PPIs of the SKEMPI data set (by PDBID); settings: Flex_ddG Ref2015, 1 REU = 1 kcal/mol assumed; cited from earlier work
[5] = molecular target: T1, SUMO-1 (Homo sapiens, UniProt P63165); type: binding
T1 construct: The pet19b His-TEV-SUMO-1 (18-97) construct was over-expressed; His-TEV (N, cleaved yes); made in house; host or cells: E. coli Rosetta 2

[6] = molecular target: T2, SHANK-PDZ (Homo sapiens, UniProt Q9Y566); settings: for H (fitted ITC data): binding enthalpy from ITC fit; for H (fitted ITC data) / S (fitted ITC data): 20 mM Tris, 150 mM NaCl pH 7.5 at 25 °C; for S (fitted ITC data): binding entropy from ITC fit
T2 sequence (Q9Y566 656-762): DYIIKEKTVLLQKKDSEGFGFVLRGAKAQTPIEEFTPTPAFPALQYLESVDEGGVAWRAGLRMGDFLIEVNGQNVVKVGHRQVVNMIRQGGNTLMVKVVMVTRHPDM

[7] = class of the experimental SKEMPI ΔΔG
[8] = experimental ΔΔG of single mutation to alanine, SKEMPI database
[9] = class of the SKEMPI experimental ΔΔG, ref SKEMPI
[10] = SKEMPI experimental ΔΔG of binding, single mutation to alanine, complex by PDBID, ref SKEMPI

T1 sequence (P63165 18-97, species assumed): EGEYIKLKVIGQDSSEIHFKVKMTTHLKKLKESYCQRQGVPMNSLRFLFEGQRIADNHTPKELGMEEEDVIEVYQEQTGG

In the case of 1A22 IA4A, the “sk_class (class of the SKEMPI experimental ΔΔG)” value ([1]; ref SKEMPI) is listed as “Neutral (neutral (little effect) 4.184 kJ/mol < ΔΔG > −4.184 kJ/mol)”, the sk_class [1, 7] is listed as “Neutral (neutral (little effect) 4.184 kJ/mol < ΔΔG > −4.184 kJ/mol)” and the sk_ddG_kJ [2, 8] is listed as 0.411 kcal/mol. The “sk_ddG_kJ (SKEMPI experimental ΔΔG of binding, mutation to alanine)” value ([2]; ref SKEMPI) was 1.72 kJ, the rosetta_ddG_kJ [3] was -0.124 kcal/mol and the ref2015_ddG_kJ [4] was -0.201 kcal/mol.

In the case of 1A22 LA6A, the “sk_class (class of the SKEMPI experimental ΔΔG)” value ([1]; ref SKEMPI) is listed as “Neutral (neutral (little effect) 4.184 kJ/mol < ΔΔG > −4.184 kJ/mol)”, the sk_class [1, 7] is listed as “Neutral (neutral (little effect) 4.184 kJ/mol < ΔΔG > −4.184 kJ/mol)” and the sk_ddG_kJ [2, 8] is listed as 0.6 kcal/mol. The “sk_ddG_kJ (SKEMPI experimental ΔΔG of binding, mutation to alanine)” value ([2]; ref SKEMPI) was 2.51 kJ, the rosetta_ddG_kJ [3] was -0.0669 kcal/mol and the ref2015_ddG_kJ [4] was -0.184 kcal/mol.

For 1A22 PA5A, the sk_class [1, 7] is given as “Neutral (neutral (little effect) 4.184 kJ/mol < ΔΔG > −4.184 kJ/mol)”, the “sk_class (class of SKEMPI experimental ΔΔG)” value ([2]; class by ΔΔG threshold 4.184 kJ/mol, ref SKEMPI) is given as “Neutral (neutral (little effect) 4.184 kJ/mol < ΔΔG > −4.184 kJ/mol)” and the sk_ddG_kJ [2, 8] is given as 0.43 kcal/mol. The “sk_ddG_kJ (SKEMPI experimental ΔΔG, mutation to alanine)” value ([2]; single mutation to alanine, complex given by PDBID, residue group in r_group, ref SKEMPI) was 1.80 kJ, the rosetta_ddG_kJ [3] was 0.146 kcal/mol and the ref2015_ddG_kJ [4] was 0.0406 kcal/mol.

For 1A22 TA3A, the sk_class ([1]; class of the SKEMPI experimental ΔΔG) is listed as “Neutral (neutral (little effect) 4.184 kJ/mol < ΔΔG > −4.184 kJ/mol)”, the sk_class [1, 7] is listed as “Neutral (neutral (little effect) 4.184 kJ/mol < ΔΔG > −4.184 kJ/mol)” and the sk_ddG_kJ [2, 8] is listed as -0.0502 kcal/mol. For the same molecule, the “sk_ddG_kJ (SKEMPI experimental ΔΔG)” value ([2]; single mutation to alanine, complex given by PDBID, mutation by mut_pdb, ref SKEMPI) was -0.21 kJ, the rosetta_ddG_kJ [3] was -0.0406 kcal/mol and the ref2015_ddG_kJ [4] was 0.0717 kcal/mol.

With CC[C@H](C)[C@H](NC(=O)[C@H](C)NC(=O)[C@H](CC(N)=O)NC(=O)[C@H](CC(=O)O)NC(=O)COCCOCCNC(=O)c1ccc2c(c1)C(=O)OC21c2ccc(O)cc2Oc2cc(O)ccc21)C(=O)N[C@@H](CCC(=O)O)C(=O)N[C@H](C(=O)N[C@H](C(=O)N[C@H](C(=O)N[C@H](C(=O)N[C@@H](Cc1c[nH]c2ccccc12)C(=O)N[C@@H](CCC(=O)O)C(=O)N[C@@H](CCCCN)C(=O)N[C@@H](CCCCN)C(N)=O)C(C)C)[C@@H](C)CC)[C@@H](C)CC)C(C)C [FAM-E2707A SIM] ({5FAM-AEEA}-DNAIEVIIVWEKK-NH2) the “Experimental competition (ΔΔG on mutation of the residue to alanine)” value [5] was 1.7 and the “Experimental competition (ΔΔG)” value [5] was 0.406 kcal/mol.

In the case of CC[C@H](C)[C@H](NC(=O)[C@H](CCC(=O)O)NC(=O)[C@H](CC(N)=O)NC(=O)[C@H](CC(=O)O)NC(=O)COCCOCCNC(=O)c1ccc2c(c1)C(=O)OC21c2ccc(O)cc2Oc2cc(O)ccc21)C(=O)N[C@@H](CCC(=O)O)C(=O)N[C@H](C(=O)N[C@H](C(=O)N[C@@H](C)C(=O)N[C@H](C(=O)N[C@@H](Cc1c[nH]c2ccccc12)C(=O)N[C@@H](CCC(=O)O)C(=O)N[C@@H](CCCCN)C(=O)N[C@@H](CCCCN)C(N)=O)C(C)C)[C@@H](C)CC)C(C)C [FAM-I2712A SIM] ({5FAM-AEEA}-DNEIEVIAVWEKK-NH2), the “Experimental competition (ΔΔG on mutation of the residue to alanine)” value [5] is reported as 5.7 and the “Experimental competition (ΔΔG)” value [5] is reported as 1.36 kcal/mol.

With CC[C@H](C)[C@H](NC(=O)[C@H](C)NC(=O)[C@H](CCC(=O)O)NC(=O)[C@@H](NC(=O)[C@H](CCC(=O)O)NC(=O)[C@H](CC(N)=O)NC(=O)[C@H](CC(=O)O)NC(=O)COCCOCCNC(=O)c1ccc2c(c1)C(=O)OC21c2ccc(O)cc2Oc2cc(O)ccc21)[C@@H](C)CC)C(=O)N[C@H](C(=O)N[C@H](C(=O)N[C@@H](Cc1c[nH]c2ccccc12)C(=O)N[C@@H](CCC(=O)O)C(=O)N[C@@H](CCCCN)C(=O)N[C@@H](CCCCN)C(N)=O)C(C)C)[C@@H](C)CC [FAM-V2710A SIM] ({5FAM-AEEA}-DNEIEAIIVWEKK-NH2) the “Experimental competition (ΔΔG on mutation of the residue to alanine)” value [5] was 4.7 and the “Experimental competition (ΔΔG)” value [5] was 1.12 kcal/mol.

With CC[C@H](C)[C@H](NC(=O)[C@H](CCC(=O)O)NC(=O)[C@H](CC(N)=O)NC(=O)[C@H](CC(=O)O)NC(=O)COCCOCCNC(=O)c1ccc2c(c1)C(=O)OC21c2ccc(O)cc2Oc2cc(O)ccc21)C(=O)N[C@@H](CCC(=O)O)C(=O)N[C@H](C(=O)N[C@H](C(=O)N[C@H](C(=O)N[C@H](C(=O)N[C@@H](C)C(=O)N[C@@H](CCC(=O)O)C(=O)N[C@@H](CCCCN)C(=O)N[C@@H](CCCCN)C(N)=O)C(C)C)[C@@H](C)CC)[C@@H](C)CC)C(C)C [FAM-W2714A SIM] ({5FAM-AEEA}-DNEIEVIIVAEKK-NH2) the “Experimental competition (ΔΔG on mutation of the residue to alanine)” value [5] was 8.1 and the “Experimental competition (ΔΔG)” value [5] was 1.94 kcal/mol.

For Ac-EAQTRL [GKAP], the “H (fitted ITC data)” value [6] was -6.54 ± 0.04 kcal/mol and the “S (fitted ITC data)” value [6] was 3.49 cal/molK.

For Ac-EAQTRL-NH2 [CO2H-CONH2 GKAP], the “Experimental ΔΔG, direct titration” value [6] was 2.72 kcal/mol, the “H (fitted ITC data)” value [6] was -1.57 ± 0.18 kcal/mol and the “S (fitted ITC data)” value [6] was 11.2 cal/molK.

B1: 1DAN KT41A (protein, UniProt P13726 33-251, looked up, variant K41A)
extracellular domain: SGTTNTVAAYNLTWKSTNFKTILEWEPKPVNQVYTVQISTASGDWKSKCFYTTDTECDLTDEIVKDVKQTYLARVFSYPAGNVESTGSAGEPLYENSPEFTPYLETNLGQPTIQSFEQVGTKVNVTVEDERTLVRRNNTFLSLRDVFGKDLIYTLYYWKSSSSGKKTAKTNTNEFLIDVDKGENYCFSVQAVIPSRTVNRKSTDSPVECMGQEKGEFRE
modifications: extracellular domain
For B1, the sk_class [1, 9] is given as “Neutral (neutral (little effect) 4.184 kJ/mol < ΔΔG > −4.184 kJ/mol)” and the sk_ddG_kJ [2, 10] is given as 1.38 kJ.

B2: 1DAN KT48A (protein, UniProt P13726 33-251, looked up, variant K48A)
extracellular domain: B1 extracellular domain with A41K, K48A
modifications: extracellular domain
For B2, the sk_class [1, 9] is listed as “Neutral (neutral (little effect) 4.184 kJ/mol < ΔΔG > −4.184 kJ/mol)” and the sk_ddG_kJ [2, 10] is listed as 1.76 kJ.

B3: 1DAN KU122A (protein, UniProt P13726 33-251, looked up, variant K122A)
extracellular domain: B1 extracellular domain with A41K, K122A
modifications: extracellular domain
In the case of B3, the sk_class [1, 9] is listed as “Neutral (neutral (little effect) 4.184 kJ/mol < ΔΔG > −4.184 kJ/mol)” and the sk_ddG_kJ [2, 10] is listed as -0.50 kJ.

B4: 1DAN DU129A (protein, UniProt P13726 33-251, looked up, variant D129A)
extracellular domain: B1 extracellular domain with A41K, D129A
modifications: extracellular domain
In the case of B4, the sk_class [1, 9] is listed as “Neutral (neutral (little effect) 4.184 kJ/mol < ΔΔG > −4.184 kJ/mol)” and the sk_ddG_kJ [2, 10] is listed as -0.08 kJ.

B5: 1DAN EU128A (protein, UniProt P13726 33-251, looked up, variant E128A)
extracellular domain: B1 extracellular domain with A41K, E128A
modifications: extracellular domain
For B5, the sk_class [1, 9] is listed as “Neutral (neutral (little effect) 4.184 kJ/mol < ΔΔG > −4.184 kJ/mol)” and the sk_ddG_kJ [2, 10] is listed as 0.38 kJ.

B6: 1DAN EU99A (protein, UniProt P13726 33-251, looked up, variant E99A)
extracellular domain: B1 extracellular domain with A41K, E99A
modifications: extracellular domain
In the case of B6, the sk_class [1, 9] is listed as “Neutral (neutral (little effect) 4.184 kJ/mol < ΔΔG > −4.184 kJ/mol)” and the sk_ddG_kJ [2, 10] is listed as -0.75 kJ.

B7: 1DAN RU131A (protein, UniProt P13726 33-251, looked up, variant R131A)
extracellular domain: B1 extracellular domain with A41K, R131A
modifications: extracellular domain
For B7, the sk_class [1, 9] is given as “Neutral (neutral (little effect) 4.184 kJ/mol < ΔΔG > −4.184 kJ/mol)” and the sk_ddG_kJ [2, 10] is given as 0.00 kJ.

B8: 1DAN KT46A (protein, UniProt P13726 33-251, looked up, variant K46A)
extracellular domain: B1 extracellular domain with A41K, K46A
modifications: extracellular domain
In the case of B8, the sk_class [1, 9] is given as “Neutral (neutral (little effect) 4.184 kJ/mol < ΔΔG > −4.184 kJ/mol)” and the sk_ddG_kJ [2, 10] is given as 1.00 kJ.

B9: 1DAN DT44A (protein, UniProt P13726 33-251, looked up, variant D44A)
extracellular domain: B1 extracellular domain with A41K, D44A
modifications: extracellular domain
For B9, the sk_class [1, 9] is given as “Positive (positive (a hot residue) ΔΔG ≥ 4.184 kJ/mol)” and the sk_ddG_kJ [2, 10] is given as 10.00 kJ.

B10: 1DAN DT58A (protein, UniProt P13726 33-251, looked up, variant D58A)
extracellular domain: B1 extracellular domain with A41K, D58A
modifications: extracellular domain
For B10, the sk_class [1, 9] is given as “Positive (positive (a hot residue) ΔΔG ≥ 4.184 kJ/mol)” and the sk_ddG_kJ [2, 10] is given as 8.37 kJ.
